Test results published in patent EP4775208A1, “USE OF PRMT5 INHIBITOR IN TREATMENT OF TUMORS OR CANCERS” (Apeiron Therapeutics (Hong Kong) Ltd., priority 2023, dated 2025).

What was measured:
[1] = tested on: HCT-116 MTAP(-/-) deficient cells; experiment: Inhibition of proliferation of HCT-116 MTAP(-/-) deficient cells (Cell-Titer Glo); type: cell-based; details: Homo sapiens, HCT-116, 192 h, 8 days
Method: Test 1: Compound's inhibitory activity on proliferation of HCT-116 MTAP(-/-) deficient cells.
Materials and Cells: HCT-116 MTAP(-/-) deficient cells obtained from Kyinno Bio (China); RPMI-1640 medium, fetal bovine serum, and penicillin-streptomycin purchased from Thermo Fisher Scientific (America); 384-well plates from PerkinElmer (America); Cell-Titer Glo assay kit from Promega (America).
Cell Culture: HCT116 MTAP(-/-) deficient cells were cultured in RPMI 1640 medium containing 10% fetal bovine serum and 1% penicillin-streptomycin at 37°C, 5% CO2. Only cells in logarithmic growth phase were used for experiments.
(§1) Cell Proliferation Inhibition Assay: The compound's inhibitory activity on HCT-116 MTAP(-/-) deficient cells was assessed using the Cell-Titer Glo assay kit. Adjusting cell concentration, 40 µL was seeded into a 384-well plate and cultured overnight at 37°C, 5% CO2. Each well received 40 nL of the compound, achieving concentrations from 0 to 10,000 nM (starting concentration 10,000 nM, 3-fold dilution, 10 points), with 0.1% DMSO. The cell plate was incubated for 8 days at 37°C, 5% CO2. Cell-Titer Glo reagent (40 µL) was added to measure cell viability.

[2] = tested on: HCT-116 MTAP wild-type cells; experiment: Inhibition of proliferation of HCT-116 MTAP wild-type cells (Cell-Titer Glo); type: cell-based; details: Homo sapiens, HCT-116, 192 h, 8 days
Method: Test 2: Compound's inhibitory activity on proliferation of HCT-116 MTAP wild-type cells.
Materials and Cells: HCT-116 MTAP wild-type cells obtained from Kyinno Bio (China); RPMI-1640 medium, fetal bovine serum, and penicillin-streptomycin purchased from Thermo Fisher Scientific (America); 384-well plates from PerkinElmer (America); Cell-Titer Glo assay kit from Promega (America).
Cell Culture: HCT116 MTAP wild-type cells were cultured in RPMI 1640 medium containing 10% fetal bovine serum and 1% penicillin-streptomycin at 37°C, 5% CO2. Only cells in logarithmic growth phase were used for experiments.
as §1, with “MTAP wild-type” for “MTAP(-/-) deficient”

Row | IC50 [1] [nM] | IC50 [2] [nM] | Compound
1 | 14.5 | 4330 | CN(C(=O)c1ccc2nc(N)c3cncn3c2c1)[C@@H]1CCc2cc(C(F)(F)F)ccc21 [Example 18, (R)-4-amino-N-methy 1-N-(5-(trifluoromethy 1)-2,3-dihydro-1H-inden-1-yl)imidazo[1,5-a]quinoxaline-8-carbox amide]
2 | 23.2 | 2230 | CC1OC[C@@H](N(C)C(=O)c2ccc3nc(N)c4cncn4c3c2)c2cc(C(F)(F)F)ccc21 (stereo partly drawn) [Example 19, 4-amino-N-methyl-N-((4S)-1-methyl-6-(trifluoromethyl)isochroman-4-yl)imidazo[1,5-a]quinoxaline-8-carbox amide]
3 | > 3000 | > 10000 | CN(C(=O)c1ccc2nc(N)c3cncn3c2c1)[C@@H]1COc2cc(P(C)(C)=O)ccc21 [Example 20, (S)-4-amino-N-(6-(dimethylphosphoryl)-2,3-dihydrobenzofuran-3-yl)-N-methylimidaz o[1,5-a]quinoxaline-8-carboxamide]
4 | 14.8 | 2130 | Cc1ncc(-c2ccc3c(c2)C(C)OC[C@H]3N(C)C(=O)c2ccc3nc(N)c4cncn4c3c2)cn1 (stereo partly drawn) [Example 21, 4-amino-N-methyl-N-((4S)-1-methyl-7-(2-methylpyrimidin-5-yl)isochroman-4-yl)imid azo[1,5-a]quinoxaline-8-carboxamide]
5 | 177 | > 10000 | CN(C(=O)c1ccc2nc(N)c3cncn3c2c1)[C@@H]1CCOc2cc(C(F)(F)F)ccc21 [Example 25, (R)-4-amino-N-methy 1-N-(7-(trifluoromethy 1)chroman-4-yl)imida zo[1,5-a]quinoxaline-8-carboxamide]
6 | 25.7 | 1410 | C[C@H]1OC[C@@H](N(C)C(=O)c2ccc3nc(N)c4cncn4c3c2)c2cnc(C(F)(F)F)cc21 [Example 32, 4-amino-N-methyl-N-((1R,4S)-1-methyl-7-(trifluoromethyl)-3,4-dihydro-1H-pyrano[4,3-c]pyridin-4-yl)imidazo[1,5-a]quinoxaline-8-carboxamide]
7 | > 3000 | > 10000 | Cc1cc(C(=O)N(C)[C@@H]2COc3cc(C(F)(F)F)ccc32)cc2c1nc(N)c1cncn12 [Example 37, (S)-4-amino-N,6-dime thyl-N-(6-(trifluoromethyl)-2,3-dihydrobenzofuran-3-yl)imidazo[1 ,5-a]quinoxaline-8-car boxamide]
8 | 660 | 5460 | CN(C(=O)c1ccc2nc(N)c3cc(F)cn3c2c1)[C@@H]1COc2cc(C(F)(F)F)ccc21 [Example 42, (S)-4-amino-2-fluoro-N-methyl-N-(6-(trifluoromethyl)-2,3-dihydrobenzofuran-3-yl)pyrr olo[1,2-a]quinoxaline-8-carboxamide]
9 | 52.2 | > 10000 | CN(C(=O)c1cc2c(cc1F)nc(N)c1cncn12)[C@@H]1COc2cc(-c3cscn3)ccc21 [Example 46, (S)-4-amino-7-fluoro-N-methyl-N-(6-(thiazol-4-yl)-2,3-dihydrobenzofuran-3-yl)imidaz o[1,5-a]quinoxaline-8-carboxamide]
10 | 4.2 | 196 | CC1OC[C@@H](N(C)C(=O)c2cc3c(cn2)nc(N)c2cncn23)c2ccc(C(F)(F)F)cc21 (stereo partly drawn) [Example 50, 4-amino-N-methyl-N-((4S)-1-methyl-7-(trifluoromethyl)isochroman-4-yl)imidazo[1,5-a]pyrido[3,4-e]pyrazine-8-carboxamide]
11 | 213 | 5860 | CN(C(=O)c1ccc2nc(N)c3cncn3c2c1)[C@H]1COc2cc(C(F)(F)F)ccc21 [Example 51, (R)-4-amino-N-methy 1-N-(6-(trifluoromethy 1)-2,3-dihydrobenzofuran-3-yl)imidazo[1,5-a]quinoxaline-8-carbo xamide]
12 | 123 | > 10000 | CN(C(=O)c1ccc2nc(N)c3cncn3c2c1)[C@@H]1COc2cc(CF)ccc21 [Example 52, (S)-4-amino-N-(6-(fluoromethyl)-2,3-dihydrobenzofuran-3-yl)-N-methylimidazo[1,5-a] quinoxaline-8-carbox amide]
13 | > 3000 | > 10000 | CN(C(=O)c1ccc2nc(N)c3cncn3c2c1)[C@@H]1COc2cc(C(N)=O)ccc21 [Example 53, (S)4-amino-N-(6-carbamoyl-2,3-dihydrobenzofuran-3-yl)-N-met hylimidazo[1,5-a]quin oxaline-8-carboxamide]
14 | 10.5 | 1870 | CN(C(=O)c1cc2c(cc1F)nc(N)c1cncn12)[C@@H]1COc2cc(OC(F)(F)F)ccc21 [Example 57, (S)-4-amino-7-fluoro-N-methyl-N-(6-(trifluoromethoxy)-2,3-dihydrobenzofuran-3-yl)i midazo[1,5-a]quinoxa line-8-carboxamide]

Second part, the molecule before the results:

Row | Compound | IC50 [1] [nM] | IC50 [2] [nM]
15 | CN(C(=O)c1ccc2nc(N)c3cncn3c2c1)[C@@H]1CCc2cc(C(F)(F)F)ncc21 [Example 23, (R)-4-amino-N-methy 1-N-(3-(trifluoromethy 1)-6,7-dihydro-5H-cyclopenta[c]pyridin-7-yl)imidazo[1,5-a]quinox aline-8-carboxamide] | 120 | > 10000
16 | CN(C(=O)c1cc2c(cn1)nc(N)c1cncn12)[C@@H]1CCc2cc(C(F)(F)F)ncc21 [Example 24, (R)-4-amino-N-methy 1-N-(3-(trifluoromethy 1)-6,7-dihydro-5H-cyclopenta[c]pyridin-7-yl)imidazo[1,5-a]pyrido [3,4-e]pyrazine-8-carb oxamide] | 148 | > 10000
17 | CN(C(=O)c1ccc2nc(N)c3cncn3c2c1)[C@@H]1COc2cc(C(F)(F)F)ncc21 [Example 26, (S)-4-amino-N-methy 1-N-(6-(trifluoromethy 1)-2,3-dihydrofuro[3,2-c]pyridin-3-yl)imidaz o[1,5-a]quinoxaline-8-carboxamide] | 67.7 | > 10000
18 | CN(C(=O)c1cc2c(cc1Cl)nc(N)c1cncn12)[C@@H]1COc2cc(C(F)(F)F)ccc21 [Example 27, (S)-4-amino-7-chloro-N-methyl-N-(6-(trifluoromethyl)-2,3-dihydrobenzofuran-3-yl)imi dazo[1,5-a]quinoxaline-8-carboxamide] | 4.4 | 842
19 | CN(C(=O)c1ccc2nc(N)c3cncn3c2c1)[C@@H]1COc2cc(S(C)(=O)=O)ccc21 [Example 28, (S)-4-amino-N-methy 1-N-(6-(methylsulfony 1)-2,3-dihydrobenzofuran-3-yl)imidazo[1,5-a]quinoxaline-8-carbo xamide] | 321 | > 10000
20 | CN(C(=O)c1ccc2nc(N)c3cncn3c2n1)[C@@H]1COc2cc(C(F)(F)F)ccc21 [Example 30, (S)-6-amino-N-methy 1-N-(6-(trifluoromethy 1)-2,3-dihydrobenzofuran-3-yl)imidazo[1,5-a]pyrido[3,2-e]pyrazine-2-carboxamide] | 2090 | > 10000
21 | CN(C(=O)c1cc2c(cn1)nc(N)c1cncn12)[C@@H]1COc2cc(C(F)(F)F)ncc21 [Example 31, (S)-4-amino-N-methy 1-N-(6-(trifluoromethy 1)-2,3-dihydrofuro[3,2-c]pyridin-3-yl)imidaz o[1,5-a]pyrido[3,4-e]p yrazine-8-carboxamide] | 297 | > 10000
22 | CN(C(=O)c1ccc2nc(N)c3nncn3c2c1)[C@@H]1COc2cc(C(F)(F)F)ccc21 [Example 48, (S)-4-amino-N-methy 1-N-(6-(trifluoromethy 1)-2,3-dihydrobenzofuran-3-yl)-[1,2,4]triazo lo[4,3-a]quinoxaline-8-carboxamide] | > 3000 | > 3000
23 | CN(C(=O)c1ccc2nc(N)n3cncc3c2c1)[C@@H]1COc2cc(C(F)(F)F)ccc21 [Example 49, (S)-5-amino-N-methy 1-N-(6-(trifluoromethy 1)-2,3-dihydrobenzofuran-3-yl)imidazo[1,5-c]quinazoline-9-carbo xamide] | 589 | > 10000
24 | CN(C(=O)c1ccc2nc(N)c3cncn3c2c1)[C@@H]1COc2cc(N)ccc21 [Example 54, (S)-4-amino-N-(6-amino-2,3-dihydrobenzof uran-3-yl)-N-methyli midazo[1,5-a]quinoxa line-8-carboxamide] | 2500 | > 10000
25 | CN(C(=O)c1ccc2nc(N)c3nnnn3c2c1)[C@@H]1COc2cc(C(F)(F)F)ccc21 [Example 58, (S)-4-amino-N-methyl-N-(6-(trifluoromethyl)-2,3-dihydrobenzofuran-3-yl)tetrazolo[1,5-a]quinoxaline-8-carboxamide] | > 3000 | > 10000
